Source: patent publication US9877947B2, “C-terminal HSP90 inhibitors to treat pituitary adenomas” (priority 2013, dated 2018)

Key:
Format in all cases: cell-based
[1] = tested on: corticotroph tumor cell line AtT-20; experiment: Proliferation assay (WST-1 assay); conditions: 96 hours treatment, different doses, WST-1, vs vehicle = 100%
Experimental: AtT-20 cells were treated for 96 hours with different doses of (A) 17-AAG, (B) silibinin, or (C) novobiocin.
Cell proliferation was measured with the WST-1 proliferation assay (Roche Applied Science). This assay measures the activity of the mitochondrial succinate dehydrogenase. After 4 days of treatment with different HSP90 inhibitors, the WST-1 reagent was added to AtT-20 cell cultures in 96-well plates to a final dilution of 1:10. The cells were incubated for 2 hours and then the absorbance of the reaction product was measured with an ELISA reader at 440 nm, following the manufacturer's instructions.

[2] = tested on: GR (glucocorticoid receptor) protein; experiment: Western blot, induction of GR degradation; conditions: AtT-20 cells
Experimental: (§1) AtT-20 cells were treated with (A) 17-AAG, (B) silibinin, or (C) novobiocin. At the end of the treatment, the GR, Cdk1 and actin proteins were detected by Western blot.
(§2) AtT-20 cells in 6-well plates were treated with different HSP90 inhibitors for the times indicated in each experiment. At the end of the treatment, cell lysates were prepared in lysis buffer supplemented with protease and phosphatase inhibitor cocktail (Roche). Samples of the lysates were separated by PAGE and blotted onto membranes using standard western blot procedures with gels and buffers from Invitrogen. After blocking the membranes with 5% non-fat dry milk, primary antibodies against GR (H-300, Santa Cruz), Cdk1 (BD Transduction Laboratories), and actin (Cell Signalling) were added. Anti-mouse and anti-rabbit horseradish peroxidase-conjugated secondary antibodies were used to detect the primary antibodies. The detection was carried out using Lumilight (Roche) or ECL-Plus (Thermo Scientific).

Cdk1 = experiment: Western blot, Cdk1 degradation; conditions: AtT-20 cells
Experimental: as §1, §2

[3] = tested on: GR (glucocorticoid receptor); experiment: Evaluation of GR activity (MTV-Luc reporter); conditions: AtT-20 cells, 72 hours, in combination with dexamethasone
Experimental: AtT-20 cells were treated for 72 hours with different doses of (A) 17-AAG, (B) silibinin, or (C) novobiocin. At the end of the treatment, GR activity was measured by transfection of the reporter construct MTV-luc.
AtT-20 cells (3×10^5) were transfected for 3 hours with 1 μg of the MTV-Luc reporter plasmid in 6-well plates. Cell transfection was performed with SuperFect (Qiagen GmbH). After an overnight incubation in culture medium with 10% fetal calf serum, the cells were treated with different HSP90 inhibitors in combination with dexamethasone. Luciferase activity in cell lysates was measured with a Berthold luminometer after addition of luciferin and ATP. Transfection efficiency was determined using the Rous sarcoma virus-β-gal construct. Data are expressed as the ratio of luciferase activity to β-gal activity.

AtT-20 cells = experiment: Evaluation of ACTH secretion (RIA); conditions: for ACTH secretion: 48 hours, plus dexamethasone 100 nM
Experimental: AtT-20 cells were treated for 48 hours with the glucocorticoid dexamethasone (100 nM) plus different doses of 17-AAG or silibinin, as indicated in the figure. At the end of the treatment, ACTH was measured by RIA.
AtT-20 cells were treated for 72 hours with 10 μM silibinin in combination with different doses of octreotide, as indicated in the figure.
AtT-20 cells were seeded in 96-well plates in cell culture medium containing dexamethasone to mimic the high glucocorticoid concentration in the blood of patients with Cushing's disease. At the end of the treatment, the cell culture supernatants were collected and frozen. ACTH secreted into the cell culture medium was measured by radio-immunoassay (RIA) in comparison with known amounts of ACTH standards diluted in the same medium. […] The bound and free fractions were separated by centrifugation with charcoal and the radioactivity was measured in a beta-counter.

GH3 prolactinoma cells = experiment: Evaluation of prolactin secretion (RIA); conditions: 48 hours
Experimental: 10,000 GH3 prolactinoma cells obtained from the American Type Culture Collection (Rockville, Md.) were seeded onto 96-well plates in DMEM with 10% fetal calf serum. After 24 hours the medium was changed and the attached cells were treated with different doses of the HSP90 inhibitors 17-AAG or silibinin, as indicated in FIG. 10. After 48 hours, culture supernatants were collected and the concentration of prolactin was measured by RIA.

[4] = tested on: GH3 somatotroph adenoma cells; experiment: Evaluation of growth hormone secretion (RIA); conditions: 48 hours
Experimental: 10,000 GH3 somatotroph adenoma cells obtained from the American Type Culture Collection (Rockville, Md.) were seeded onto 96-well plates in DMEM with 10% fetal calf serum. After 24 hours the medium was changed and the attached cells were treated with different doses of the HSP90 inhibitors 17-AAG or silibinin, as indicated in the FIG. 11. After 48 hours, culture supernatants were collected and the concentration of growth hormone was measured by RIA.

GH3 cells = experiment: Cell-viability assay WST-1 (toxicity)
[5] = WST-1, growth hormone experiment (Example 07)
[6] = WST-1, prolactin experiment (Example 06)

C=CCNC1=C2C[C@@H](C)C[C@H](OC)[C@H](O)[C@@H](C)/C=C(\C)[C@H](OC(N)=O)[C@@H](OC)/C=C\C=C(/C)C(=O)NC(=CC1=O)C2=O [17-AAG, 17-N-Allylamino-17-demethoxygeldanamycin]
proliferation of AtT-20 cells [1]: strongly inhibit the proliferation | GR degradation [2]: induces GR degradation | Cdk1 degradation (Cdk1): induce degradation of Cdk1 | transcriptional activity of GR [3]: inhibited this activity | ACTH secretion (AtT-20 cells): has no effect on ACTH secretion | prolactin secretion (GH3 prolactinoma cells): minimally inhibited prolactin secretion only at a concentration of 1 μM | growth hormone secretion [4]: did not inhibit growth hormone secretion at any of the tested concentrations | toxicity for GH3 cells (GH3 cells; [5]): Higher concentrations of 17-AAG were toxic | toxicity for GH3 cells (GH3 cells; [6]): Higher concentrations of 17-AAG were toxic

COc1cc([C@H]2Oc3cc([C@H]4Oc5cc(O)cc(O)c5C(=O)[C@@H]4O)ccc3O[C@@H]2CO)ccc1O [silibinin, (2R,3R)-3,5,7-trihydroxy-2-[(2R,3R)-3-(4-hydroxy-3-methoxyphenyl)-2-(hydroxymethyl)-2,3-dihydrobenzo[b][1,4]dioxin-6-yl]chroman-4-one]
proliferation of AtT-20 cells [1]: strongly inhibit the proliferation | GR degradation [2]: did not produce this effect | Cdk1 degradation (Cdk1): induce degradation of Cdk1 | transcriptional activity of GR [3]: increased the transcriptional activity of GR | ACTH secretion (AtT-20 cells): inhibits ACTH secretion | ACTH secretion in combination with octreotide (AtT-20 cells; 72 hours, 10 μM silibinin plus sub-optimal concentrations of octreotide): increases the inhibition of ACTH secretion | prolactin secretion (GH3 prolactinoma cells): significantly inhibited the secretion of prolactin | growth hormone secretion [4]: significantly inhibited the secretion of growth hormone | toxicity for GH3 cells (GH3 cells; [5]): no toxicity was observed, even at high concentrations | toxicity for GH3 cells (GH3 cells; [6]): no toxicity was observed, even at high concentrations

CO[C@@H]1[C@@H](OC(N)=O)[C@@H](O)[C@H](Oc2ccc3c(O)c(NC(=O)c4ccc(O)c(CC=C(C)C)c4)c(=O)oc3c2C)OC1(C)C [novobiocin]
proliferation of AtT-20 cells [1]: strongly inhibit the proliferation | GR degradation [2]: did not produce this effect | Cdk1 degradation (Cdk1): induce degradation of Cdk1 | transcriptional activity of GR [3]: increased the transcriptional activity of GR
